Laboratory results as given in publication PMC3809078 (Journal of natural products, 2013).

What was measured:
[1] = system: MDA-MB-231 cells; experiment: Cell proliferation/viability assay; assay type: cell-based, human
[2] = system: T47D cells; experiment: Cell proliferation/viability assay; assay type: cell-based, human
[3] = system: retinoic acid receptors (RARs); details: cytotoxic activity attributed to it; cited from earlier work

For `CC1=C(CC/C(C)=C/CC/C(C)=C/C[C@@H](O)C2=CC(=O)OC2)C(C)(C)C(=O)CC1` [Compound 1, thorectidaeolide A], the “effect on cell viability (in words)” value [1] was “Neither 1, nor 2, or any of the other less active sesterterpenes suppressed” and the “effect on cell viability (in words)” value [2] was “Neither 1, nor 2, or any of the other less active sesterterpenes suppressed”.

In the case of `CC(=O)O[C@H](C/C=C(\C)CC/C=C(\C)CCC1=C(C)CCC(=O)C1(C)C)C1=CC(=O)OC1` [Compound 2, 4-acetoxythorectidaeolide A], the “effect on cell viability (in words)” value [1] is reported as “Neither 1, nor 2, or any of the other less active sesterterpenes suppressed” and the “effect on cell viability (in words)” value [2] is reported as “Neither 1, nor 2, or any of the other less active sesterterpenes suppressed”.

For `CC1=C(CC/C(C)=C/CC/C(C)=C/CCC2=CC(=O)OC2O)C(C)(C)CCC1` (stereo not shown) [Compound 11, luffariellolide], the “effect on cell viability (in words)” value [1] is given as “significant level of cytotoxicity”, the “action on retinoic acid receptors (in words)” value [3] is given as “agonist of retinoic acid receptors” and the “effect on cell viability (in words)” value [2] is given as “significant level of cytotoxicity”.
